Measured values taken from patent US20170081347A1, “FUNCTIONALIZED AZABORINE COMPOUNDS AND AZABORINE-CONTAINING BIARYLCARBOXAMIDES, AND COMPOSITIONS AND METHODS THEREOF” (The Trustees of Boston College, priority 2014, published 2017).
Converted amounts (≈) assume the structure as drawn.

Target: CYP3A4 (Homo sapiens, UniProt P08684)
Sequence (P08684 whole entry): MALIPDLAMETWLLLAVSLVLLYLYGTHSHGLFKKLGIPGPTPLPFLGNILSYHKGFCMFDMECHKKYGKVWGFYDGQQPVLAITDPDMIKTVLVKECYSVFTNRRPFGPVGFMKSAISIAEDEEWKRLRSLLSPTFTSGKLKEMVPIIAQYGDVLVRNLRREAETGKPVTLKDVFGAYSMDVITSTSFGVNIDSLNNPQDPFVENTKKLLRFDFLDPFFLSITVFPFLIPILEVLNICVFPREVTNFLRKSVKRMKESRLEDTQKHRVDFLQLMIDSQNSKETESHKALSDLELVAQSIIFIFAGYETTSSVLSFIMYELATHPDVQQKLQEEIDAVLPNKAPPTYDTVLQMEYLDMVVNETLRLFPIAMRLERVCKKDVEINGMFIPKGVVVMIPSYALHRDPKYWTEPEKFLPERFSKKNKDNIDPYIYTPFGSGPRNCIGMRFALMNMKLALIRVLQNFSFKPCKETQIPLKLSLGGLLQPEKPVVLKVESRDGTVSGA
Test: CYP3A4 (Cytochrome P450 3A4)
Assay type: in vitro ADME
Conditions: not given
In the case of `O=C(NC1CCN(Cc2ccccc2)C1)c1ccc(-c2ccccc2)cc1` (stereo not drawn), the IC50 is reported as > 20 µM.
With `O=C(NC1CCN(Cc2ccccc2)C1)c1ccc(B2C=CC=CN2)cc1` (stereo not drawn) the IC50 was > 20 µM.
In the case of `O=C(NCCS(=O)(=O)c1ccc(C(F)(F)F)cn1)c1ccc(-c2ccccc2)cc1`, the IC50 is reported as > 20 µM.
In the case of `COc1ccccc1N1CCN(CCCCNC(=O)c2ccc(-c3ccccc3)cc2)CC1`, the IC50 is reported as > 20 µM.
In the case of `COc1ccc2[nH]cc(CCNC(=O)c3ccc(-c4ccccc4)cc3)c2c1`, the IC50 is reported as > 20 µM.
In the case of `O=C(NCCS(=O)(=O)c1ccc(C(F)(F)F)cn1)c1ccc(B2C=CCCN2)cc1`, the IC50 is reported as > 20 µM.
For `CN(CCc1c[nH]c2ccccc12)C(=O)c1ccc(B2C=CC=CN2)cc1`, the IC50 was > 20 µM.
With `O=C(O)Cc1ccc(B2C=CC=CN2)cc1` the IC50 was > 20 µM.

Tested on: not listed separately
Test: LogD
Assay type: physicochemical
Conditions: not given
Work on `O=C(NC1CCN(Cc2ccccc2)C1)c1ccc(-c2ccccc2)cc1` (stereo not drawn) yielded a logD of 4.4.
Work on `O=C(NC1CCN(Cc2ccccc2)C1)c1ccc(B2C=CC=CN2)cc1` (stereo not drawn) yielded a logD of 4.1.
`O=C(NCCS(=O)(=O)c1ccc(C(F)(F)F)cn1)c1ccc(-c2ccccc2)cc1` showed a logD of 3.5.
`COc1ccccc1N1CCN(CCCCNC(=O)c2ccc(-c3ccccc3)cc2)CC1` gave a logD of 4.2.
In the case of `COc1ccc2[nH]cc(CCNC(=O)c3ccc(-c4ccccc4)cc3)c2c1`, the logD is reported as > 5.
`O=C(NCCS(=O)(=O)c1ccc(C(F)(F)F)cn1)c1ccc(B2C=CCCN2)cc1` gave a logD of 3.5.
Work on `CN(CCc1c[nH]c2ccccc12)C(=O)c1ccc(B2C=CC=CN2)cc1` yielded a logD of 4.6.

Target: Dopamine D3 (Homo sapiens, UniProt P35462)
Sequence (P35462 whole entry): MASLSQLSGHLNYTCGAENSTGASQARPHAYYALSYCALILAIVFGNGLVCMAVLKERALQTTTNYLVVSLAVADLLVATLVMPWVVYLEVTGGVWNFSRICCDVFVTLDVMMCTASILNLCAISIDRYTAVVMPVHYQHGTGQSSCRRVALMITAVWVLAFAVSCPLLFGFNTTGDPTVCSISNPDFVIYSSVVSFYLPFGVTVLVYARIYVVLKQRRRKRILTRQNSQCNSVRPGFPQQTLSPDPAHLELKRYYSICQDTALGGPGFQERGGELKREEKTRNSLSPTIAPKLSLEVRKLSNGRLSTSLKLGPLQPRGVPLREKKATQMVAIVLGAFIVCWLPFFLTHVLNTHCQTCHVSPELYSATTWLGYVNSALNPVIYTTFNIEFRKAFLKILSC
Test: Dopamine D3 antagonist
Assay type: biochemical
Conditions: not given
Method: Bioactivity and ADME testing were performed for certain compounds of the invention.
`COc1ccccc1N1CCN(CCCCNC(=O)c2ccc(-c3ccccc3)cc2)CC1` gave an IC50 of 0.003 µM.

Target: T1, PPARγ (Homo sapiens, UniProt P37231)
T1 sequence (P37231 1-505): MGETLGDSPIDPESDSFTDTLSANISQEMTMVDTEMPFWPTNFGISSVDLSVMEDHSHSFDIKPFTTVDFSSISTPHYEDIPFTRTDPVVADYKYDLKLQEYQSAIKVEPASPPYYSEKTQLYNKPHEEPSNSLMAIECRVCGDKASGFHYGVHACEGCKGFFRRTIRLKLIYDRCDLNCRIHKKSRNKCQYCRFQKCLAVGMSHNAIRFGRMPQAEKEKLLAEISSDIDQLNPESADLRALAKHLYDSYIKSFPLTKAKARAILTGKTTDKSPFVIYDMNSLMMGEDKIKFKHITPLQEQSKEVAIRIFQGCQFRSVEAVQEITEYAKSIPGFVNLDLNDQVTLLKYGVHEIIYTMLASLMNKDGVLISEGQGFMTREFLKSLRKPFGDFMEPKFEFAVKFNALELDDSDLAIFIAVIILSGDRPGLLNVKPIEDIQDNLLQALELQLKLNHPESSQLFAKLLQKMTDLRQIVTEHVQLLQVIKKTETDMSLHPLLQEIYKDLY
Test: PPARγ antagonist
Assay type: biochemical
Conditions: not given
With `O=C(NCCS(=O)(=O)c1ccc(C(F)(F)F)cn1)c1ccc(-c2ccccc2)cc1` the IC50 was 1.4 µM.
Work on `O=C(NCCS(=O)(=O)c1ccc(C(F)(F)F)cn1)c1ccc(B2C=CCCN2)cc1` yielded an IC50 of 4.8 µM.

Tested on: not listed separately
Test: Solubility FASSIF (fasted state simulated intestinal fluid)
Assay type: physicochemical
Conditions: not given
`O=C(NC1CCN(Cc2ccccc2)C1)c1ccc(-c2ccccc2)cc1` (stereo not drawn) gave a solubility of 27 µM (≈ 9.62 µg/mL).
Work on `O=C(NC1CCN(Cc2ccccc2)C1)c1ccc(B2C=CC=CN2)cc1` (stereo not drawn) yielded a solubility of 597 µM (≈ 213 µg/mL).
For `O=C(NCCS(=O)(=O)c1ccc(C(F)(F)F)cn1)c1ccc(-c2ccccc2)cc1`, the solubility was < 4 µM.
`COc1ccccc1N1CCN(CCCCNC(=O)c2ccc(-c3ccccc3)cc2)CC1` showed a solubility of 21 µM (≈ 9.32 µg/mL).
Compound `O=C(NCCS(=O)(=O)c1ccc(C(F)(F)F)cn1)c1ccc(B2C=CCCN2)cc1` has a solubility of 6 µM (≈ 2.62 µg/mL).
`CN(CCc1c[nH]c2ccccc12)C(=O)c1ccc(B2C=CC=CN2)cc1` showed a solubility of 13 µM (≈ 4.62 µg/mL).
For `O=C(O)Cc1ccc(B2C=CC=CN2)cc1`, the solubility was 790 µM (≈ 168 µg/mL).

Target: hERG (Homo sapiens, UniProt Q12809)
Sequence (Q12809 whole entry): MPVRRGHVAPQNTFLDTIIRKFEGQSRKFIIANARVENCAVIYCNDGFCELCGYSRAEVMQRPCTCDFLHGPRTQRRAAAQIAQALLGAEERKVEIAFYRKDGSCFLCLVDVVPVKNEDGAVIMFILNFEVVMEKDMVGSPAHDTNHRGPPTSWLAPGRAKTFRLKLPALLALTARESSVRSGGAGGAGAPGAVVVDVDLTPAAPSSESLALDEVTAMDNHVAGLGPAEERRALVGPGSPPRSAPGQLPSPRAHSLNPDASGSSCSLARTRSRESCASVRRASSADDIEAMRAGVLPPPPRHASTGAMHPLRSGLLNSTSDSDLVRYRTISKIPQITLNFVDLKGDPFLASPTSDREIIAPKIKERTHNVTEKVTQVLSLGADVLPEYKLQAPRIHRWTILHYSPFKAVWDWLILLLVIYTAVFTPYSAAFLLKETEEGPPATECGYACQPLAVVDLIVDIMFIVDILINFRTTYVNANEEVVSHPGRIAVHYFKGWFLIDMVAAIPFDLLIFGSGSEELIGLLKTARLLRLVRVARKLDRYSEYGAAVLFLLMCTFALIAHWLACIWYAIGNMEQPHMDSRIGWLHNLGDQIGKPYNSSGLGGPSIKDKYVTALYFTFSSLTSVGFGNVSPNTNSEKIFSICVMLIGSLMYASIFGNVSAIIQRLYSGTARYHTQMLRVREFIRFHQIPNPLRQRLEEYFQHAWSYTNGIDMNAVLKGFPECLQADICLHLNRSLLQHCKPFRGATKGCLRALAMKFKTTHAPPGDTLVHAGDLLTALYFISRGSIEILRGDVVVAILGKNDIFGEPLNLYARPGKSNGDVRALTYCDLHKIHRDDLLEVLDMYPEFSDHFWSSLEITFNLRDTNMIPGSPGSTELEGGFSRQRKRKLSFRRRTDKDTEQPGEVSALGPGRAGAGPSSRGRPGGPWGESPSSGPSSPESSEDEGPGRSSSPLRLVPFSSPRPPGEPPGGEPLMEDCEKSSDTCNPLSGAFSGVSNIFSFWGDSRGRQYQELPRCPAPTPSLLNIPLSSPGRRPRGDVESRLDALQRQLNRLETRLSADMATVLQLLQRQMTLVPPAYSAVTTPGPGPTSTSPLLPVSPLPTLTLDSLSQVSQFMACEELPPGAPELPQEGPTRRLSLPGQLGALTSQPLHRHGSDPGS
Test: hERG
Conditions: not given
In the case of `O=C(NC1CCN(Cc2ccccc2)C1)c1ccc(-c2ccccc2)cc1` (stereo not drawn), the IC50 is reported as 0.32 µM.
For `O=C(NC1CCN(Cc2ccccc2)C1)c1ccc(B2C=CC=CN2)cc1` (stereo not drawn), the IC50 was 1.4 µM.
With `O=C(NCCS(=O)(=O)c1ccc(C(F)(F)F)cn1)c1ccc(-c2ccccc2)cc1` the IC50 was > 20 µM.
Work on `COc1ccccc1N1CCN(CCCCNC(=O)c2ccc(-c3ccccc3)cc2)CC1` yielded an IC50 of 0.042 µM.
`COc1ccc2[nH]cc(CCNC(=O)c3ccc(-c4ccccc4)cc3)c2c1` gave an IC50 of 11 µM.
In the case of `O=C(NCCS(=O)(=O)c1ccc(C(F)(F)F)cn1)c1ccc(B2C=CCCN2)cc1`, the IC50 is reported as > 30 µM.
For `CN(CCc1c[nH]c2ccccc12)C(=O)c1ccc(B2C=CC=CN2)cc1`, the IC50 was 5.8 µM.
With `O=C(O)Cc1ccc(B2C=CC=CN2)cc1` the IC50 was > 30 µM.

Tested on: not listed separately
Test: PAMPA (parellel artificial membrane permeability assay)
Assay type: in vitro ADME
Parameters: unit not given here
Conditions: not given
`O=C(NC1CCN(Cc2ccccc2)C1)c1ccc(-c2ccccc2)cc1` (stereo not drawn) gave a PAMPA of −3.6.
Work on `O=C(NC1CCN(Cc2ccccc2)C1)c1ccc(B2C=CC=CN2)cc1` (stereo not drawn) yielded a PAMPA of −4.8.
Compound `O=C(NCCS(=O)(=O)c1ccc(C(F)(F)F)cn1)c1ccc(-c2ccccc2)cc1` has a PAMPA of −4.2.
Work on `COc1ccccc1N1CCN(CCCCNC(=O)c2ccc(-c3ccccc3)cc2)CC1` yielded a PAMPA of −3.9.
`COc1ccc2[nH]cc(CCNC(=O)c3ccc(-c4ccccc4)cc3)c2c1` gave a PAMPA of −4.1.
In the case of `O=C(NCCS(=O)(=O)c1ccc(C(F)(F)F)cn1)c1ccc(B2C=CCCN2)cc1`, the PAMPA is reported as −4.5.
With `CN(CCc1c[nH]c2ccccc12)C(=O)c1ccc(B2C=CC=CN2)cc1` the PAMPA was −4.2.

Target: T2, PPARδ (Homo sapiens, UniProt Q03181)
T2 sequence (Q03181 1-441): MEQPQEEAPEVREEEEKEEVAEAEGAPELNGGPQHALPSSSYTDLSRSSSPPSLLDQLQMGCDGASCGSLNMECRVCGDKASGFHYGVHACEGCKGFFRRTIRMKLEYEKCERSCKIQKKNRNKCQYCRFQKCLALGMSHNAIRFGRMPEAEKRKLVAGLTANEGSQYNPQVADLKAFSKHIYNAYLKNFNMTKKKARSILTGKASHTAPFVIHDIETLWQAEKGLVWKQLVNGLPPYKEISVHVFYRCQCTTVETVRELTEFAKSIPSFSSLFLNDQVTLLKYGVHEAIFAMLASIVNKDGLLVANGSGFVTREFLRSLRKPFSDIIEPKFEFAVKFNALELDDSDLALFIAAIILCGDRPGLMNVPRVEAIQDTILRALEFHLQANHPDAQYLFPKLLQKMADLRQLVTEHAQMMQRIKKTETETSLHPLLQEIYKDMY
Test: PPARδ antagonist
Assay type: biochemical
Conditions: not given
With `O=C(NCCS(=O)(=O)c1ccc(C(F)(F)F)cn1)c1ccc(-c2ccccc2)cc1` the IC50 was 3.9 µM.

Same assay, conditions: antagonist; read-out: PPARδ antagonist IC50
Work on `O=C(NCCS(=O)(=O)c1ccc(C(F)(F)F)cn1)c1ccc(B2C=CCCN2)cc1` yielded an IC50 of 1.4 µM.

Tested on: not listed separately
Test: RLM Cl
Assay type: in vitro ADME
Conditions: not given
For `O=C(NC1CCN(Cc2ccccc2)C1)c1ccc(-c2ccccc2)cc1` (stereo not drawn), the “RLM Cl” value was 2.62 L/h/kg.
With `O=C(NC1CCN(Cc2ccccc2)C1)c1ccc(B2C=CC=CN2)cc1` (stereo not drawn) the “RLM Cl” value was 2.91 L/h/kg.
For `O=C(NCCS(=O)(=O)c1ccc(C(F)(F)F)cn1)c1ccc(-c2ccccc2)cc1`, the “RLM Cl” value was 2.32 L/h/kg.
In the case of `COc1ccccc1N1CCN(CCCCNC(=O)c2ccc(-c3ccccc3)cc2)CC1`, the “RLM Cl” value is reported as 3.08 L/h/kg.
With `COc1ccc2[nH]cc(CCNC(=O)c3ccc(-c4ccccc4)cc3)c2c1` the “RLM Cl” value was 2.78 L/h/kg.
In the case of `O=C(NCCS(=O)(=O)c1ccc(C(F)(F)F)cn1)c1ccc(B2C=CCCN2)cc1`, the “RLM Cl” value is reported as >3.18 L/h/kg.
With `CN(CCc1c[nH]c2ccccc12)C(=O)c1ccc(B2C=CC=CN2)cc1` the “RLM Cl” value was 3.14 L/h/kg.

Target: T3, PPARα (Homo sapiens, UniProt Q07869)
T3 sequence (Q07869 1-468): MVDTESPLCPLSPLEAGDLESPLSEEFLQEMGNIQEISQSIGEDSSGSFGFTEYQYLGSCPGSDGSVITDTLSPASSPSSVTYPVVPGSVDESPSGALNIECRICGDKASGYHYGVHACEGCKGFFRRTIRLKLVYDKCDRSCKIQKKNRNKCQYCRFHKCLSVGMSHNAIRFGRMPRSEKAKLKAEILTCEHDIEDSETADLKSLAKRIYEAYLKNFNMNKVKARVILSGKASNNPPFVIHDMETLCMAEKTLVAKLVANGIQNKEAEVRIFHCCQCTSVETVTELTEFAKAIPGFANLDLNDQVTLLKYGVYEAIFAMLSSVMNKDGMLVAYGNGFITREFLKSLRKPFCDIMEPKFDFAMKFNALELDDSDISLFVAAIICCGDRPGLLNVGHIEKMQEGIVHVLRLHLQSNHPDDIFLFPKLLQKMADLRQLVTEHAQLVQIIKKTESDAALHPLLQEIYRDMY
Test: PPARα inverse agonist
Assay type: biochemical
Conditions: not given
`O=C(NCCS(=O)(=O)c1ccc(C(F)(F)F)cn1)c1ccc(B2C=CCCN2)cc1` gave an IC50 of 0.052 µM.

Tested on: not listed separately
Test: Solubility pH = 6.8
Assay type: physicochemical
Conditions: aqueous buffer
With `O=C(NC1CCN(Cc2ccccc2)C1)c1ccc(-c2ccccc2)cc1` (stereo not drawn) the solubility was 13 µM (≈ 4.63 µg/mL).
In the case of `O=C(NC1CCN(Cc2ccccc2)C1)c1ccc(B2C=CC=CN2)cc1` (stereo not drawn), the solubility is reported as > 30 µM.
With `O=C(NCCS(=O)(=O)c1ccc(C(F)(F)F)cn1)c1ccc(-c2ccccc2)cc1` the solubility was < 4 µM.
For `COc1ccccc1N1CCN(CCCCNC(=O)c2ccc(-c3ccccc3)cc2)CC1`, the solubility was < 5 µM.
For `O=C(NCCS(=O)(=O)c1ccc(C(F)(F)F)cn1)c1ccc(B2C=CCCN2)cc1`, the solubility was < 4 µM.
With `CN(CCc1c[nH]c2ccccc12)C(=O)c1ccc(B2C=CC=CN2)cc1` the solubility was < 5 µM.
For `O=C(O)Cc1ccc(B2C=CC=CN2)cc1`, the solubility was > 1000 µM.
